Test results as given in PMC10745882, “Investigation of Drug-Interaction Potential for Arthritis Dietary Supplements: Chondroitin Sulfate, Glucosamine, and Methylsulfonylmethane” (Molecules, 2023).

Assays:
[1] = target: T1, CYP1A2 (Homo sapiens, UniProt P05177); assay: CYP inhibition assay in human liver microsomes (LC-MS/MS cocktail), phenacetin to acetaminophen; type: in vitro ADME
T1 construct: Pooled human liver microsomes were purchased from BD Gentest; tissue BD Gentest; host or cells: pooled human liver microsomes
T1 sequence (P05177 1-516): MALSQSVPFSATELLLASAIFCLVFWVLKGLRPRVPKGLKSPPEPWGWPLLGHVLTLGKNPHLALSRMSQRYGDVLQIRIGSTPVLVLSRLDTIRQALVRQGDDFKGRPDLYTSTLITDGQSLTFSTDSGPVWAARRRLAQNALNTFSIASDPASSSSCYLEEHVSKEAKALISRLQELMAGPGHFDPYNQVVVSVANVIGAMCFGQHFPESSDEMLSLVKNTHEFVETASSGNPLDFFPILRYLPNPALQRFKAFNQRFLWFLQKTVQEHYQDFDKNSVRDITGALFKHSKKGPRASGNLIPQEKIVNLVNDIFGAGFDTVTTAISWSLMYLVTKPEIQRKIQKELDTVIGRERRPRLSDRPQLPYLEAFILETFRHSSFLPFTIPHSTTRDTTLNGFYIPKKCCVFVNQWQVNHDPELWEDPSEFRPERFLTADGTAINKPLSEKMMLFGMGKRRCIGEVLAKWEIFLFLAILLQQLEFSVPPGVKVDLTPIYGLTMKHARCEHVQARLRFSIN
Method: (§1) For the experimental method, the reference method was used. Briefly, incubation mixtures were composed of 0.5 mg/mL human liver microsomes; varying concentrations of CS in DW (0.1, 0.3, 1, 3, 10, 30, 100, and 200 µM) or MSM in DW (0.1, 0.3, 1, 3, 10, 30, 100, 300, and 1000 µM) or GCS in DMSO (0.1, 0.3, 1, 3, 10, 30, 100, 300, and 1000 µM); a substrate mixture in DMSO (40 µM phenacetin for CYP1A2; 2.5 µM coumarin for CYP2A6; 80 µM bupropion for CYP2B6; 10 µM diclofenac for CYP2C9; 80 µM [±]-mephenytoin for CYP2C19; 5 µM dextromethorphan for CYP2D6; 2.5 µM midazolam and 30 µM testosterone for CYP3A4); and an NADPH generating system (NGS; 0.1 M glucose-6-phosphate, 10 mg/mL β-NADP^+, and 1 U/mL glucose-6-phosphate dehydrogenase) in a total volume of 200 µL potassium phosphate buffer (0.1 M, pH 7.4). The reaction mixture, excluding NGS, underwent pre-incubation at 37 °C for 5 min, followed by further incubation with NGS for 30 min in a water bath. Well-established selective CYP inhibitors were employed as positive controls (40 µM ketoconazole for CYP3A4, 50 µM furafyllin for CYP1A2, 10 µM quinidine for CYP2D6, 125 µM ticlopidine for CYP2C19 and CYP2B6, 10 µM 8-methoxsalen for CYP2A6, and 10 µM sulfaphenazole for CYP2C9). Post incubation, the reaction was halted by adding 50 µL ice-cold 1% formic acid acetonitrile. After centrifugation at 13,200 rpm for 5 min, the supernatant was collected from the sample and subjected to analysis via an LC-MS/MS system. All experiments were performed in triplicate.
(§2) For the experimental method, the reference method was used. The LC-MS/MS system utilized in this study consisted of an Agilent 1260 binary pump HPLC system coupled with the Agilent 6460 Triple Quadrupole mass spectrometer (Agilent Technologies, Santa Clara, CA, USA), featuring an electrospray ionization source. Chromatographic separation was achieved using a Fortis C8 column (2.1 × 100 mm, 5.0 µm; Fortis Technologies Ltd., Neston, UK). The HPLC mobile phases comprised (A) 0.1% formic acid and (B) 0.1% formic acid in 90% acetonitrile. A gradient elution method was employed with an initial solvent B concentration of 15% and a flow rate of 0.25 mL/min. […] The total run time was 11.0 min, and the injection volume was 5 µL. Mass detection was conducted in the positive ion mode using multiple reaction monitoring (MRM). Specific MRM transitions for each analyte are detailed in Table S4.

[2] = target: T2, CYP2B6 (Homo sapiens, UniProt P20813); assay: CYP inhibition assay in human liver microsomes (LC-MS/MS cocktail), bupropion to OH-bupropion; type: in vitro ADME
T2 construct: Pooled human liver microsomes were purchased from BD Gentest; tissue BD Gentest; host or cells: pooled human liver microsomes
T2 sequence (P20813 1-491): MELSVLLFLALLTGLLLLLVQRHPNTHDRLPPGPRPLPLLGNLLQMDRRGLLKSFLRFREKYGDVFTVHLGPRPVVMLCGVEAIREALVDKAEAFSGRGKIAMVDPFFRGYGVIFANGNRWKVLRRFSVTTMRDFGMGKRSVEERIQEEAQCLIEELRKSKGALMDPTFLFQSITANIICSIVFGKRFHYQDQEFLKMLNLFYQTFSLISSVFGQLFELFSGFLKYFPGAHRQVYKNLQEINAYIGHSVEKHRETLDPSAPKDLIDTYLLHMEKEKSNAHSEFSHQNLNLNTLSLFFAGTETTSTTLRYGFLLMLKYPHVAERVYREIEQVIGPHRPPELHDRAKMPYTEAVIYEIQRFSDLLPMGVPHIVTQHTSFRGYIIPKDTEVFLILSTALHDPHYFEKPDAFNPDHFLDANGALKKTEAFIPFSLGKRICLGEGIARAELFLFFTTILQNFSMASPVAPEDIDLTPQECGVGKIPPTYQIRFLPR
Method: as §1, §2

[3] = target: T3, CYP2D6 (Homo sapiens, UniProt P10635); assay: CYP inhibition assay in human liver microsomes (LC-MS/MS cocktail), dextromethorphan to dextrorphan; type: in vitro ADME
T3 construct: Pooled human liver microsomes were purchased from BD Gentest; tissue BD Gentest; host or cells: pooled human liver microsomes
Method: as §1, §2

[4] = test system: seven CYP isozymes (CYP1A2, CYP2A6, CYP2B6, CYP2C9, CYP2C19, CYP2D6, CYP3A4); assay: CYP inhibition assay in human liver microsomes, statements on all tested isozymes; type: in vitro ADME
Method: as §1
For the experimental method, the reference method was used. The LC-MS/MS system utilized in this study consisted of an Agilent 1260 binary pump HPLC system coupled with the Agilent 6460 Triple Quadrupole mass spectrometer (Agilent Technologies, Santa Clara, CA, USA), featuring an electrospray ionization source. Chromatographic separation was achieved using a Fortis C8 column (2.1 × 100 mm, 5.0 µm; Fortis Technologies Ltd., Neston, UK). The HPLC mobile phases comprised (A) 0.1% formic acid and (B) 0.1% formic acid in 90% acetonitrile. […]

[5] = cited from earlier work
[6] = set-up: method as in PMID 16942821, PMID 37489348, PMID 31331587; settings: typical doses as monotherapy; cited from earlier work

T3 sequence (P10635 whole entry): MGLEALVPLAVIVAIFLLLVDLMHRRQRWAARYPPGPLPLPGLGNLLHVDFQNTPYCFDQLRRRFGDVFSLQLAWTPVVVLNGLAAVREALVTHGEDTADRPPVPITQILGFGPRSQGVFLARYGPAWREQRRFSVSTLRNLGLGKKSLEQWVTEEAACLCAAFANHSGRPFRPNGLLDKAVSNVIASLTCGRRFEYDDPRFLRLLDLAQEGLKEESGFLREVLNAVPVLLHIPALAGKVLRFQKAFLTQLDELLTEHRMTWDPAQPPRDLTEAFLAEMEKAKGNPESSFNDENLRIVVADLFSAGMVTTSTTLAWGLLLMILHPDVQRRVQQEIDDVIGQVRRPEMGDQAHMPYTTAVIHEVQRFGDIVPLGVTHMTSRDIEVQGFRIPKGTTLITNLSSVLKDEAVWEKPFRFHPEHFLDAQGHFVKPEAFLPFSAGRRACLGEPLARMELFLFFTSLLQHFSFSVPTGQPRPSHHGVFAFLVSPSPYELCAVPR

N[C@H]1C(O)O[C@H](CO)[C@@H](O)[C@@H]1O (stereo partly shown) [GCS, glucosamine]
Remaining Activities (% of Control, n = 3) ([1]; test substance 0.3 μM): 110.2 ± 20.5 % of Control
Remaining Activities (% of Control, n = 3) ([1]; test substance 1 μM): 103.1 ± 1.5 % of Control
Remaining Activities (% of Control, n = 3) ([1]; test substance 3 μM): 101.1 ± 7.5 % of Control
Remaining Activities (% of Control, n = 3) ([1]; test substance 10 μM): 94.2 ± 1.8 % of Control
Remaining Activities (% of Control, n = 3) ([1]; test substance 30 μM): 94.1 ± 3.0 % of Control
Remaining Activities (% of Control, n = 3) ([1]; test substance 100 μM): 97.2 ± 3.7 % of Control
Remaining Activities (% of Control, n = 3) ([1]; test substance 300 μM): 86.7 ± 2.8 % of Control
Remaining Activities (% of Control, n = 3) ([1]; test substance 1000 μM): 82.5 ± 12.0 % of Control
Remaining Activities (% of Control, n = 3) ([2]; test substance 0.3 μM): 121.0 ± 11.6 % of Control
Remaining Activities (% of Control, n = 3) ([2]; test substance 1 μM): 116.2 ± 5.8 % of Control
Remaining Activities (% of Control, n = 3) ([2]; test substance 3 μM): 114.3 ± 3.5 % of Control
Remaining Activities (% of Control, n = 3) ([2]; test substance 10 μM): 108.2 ± 3.1 % of Control
Remaining Activities (% of Control, n = 3) ([2]; test substance 30 μM): 107.8 ± 1.3 % of Control
Remaining Activities (% of Control, n = 3) ([2]; test substance 100 μM): 111.2 ± 2.3 % of Control
Remaining Activities (% of Control, n = 3) ([2]; test substance 300 μM): 105.6 ± 1.8 % of Control
Remaining Activities (% of Control, n = 3) ([2]; test substance 1000 μM): 103.5 ± 9.2 % of Control
Remaining Activities (% of Control, n = 3) ([3]; test substance 0.3 μM): 107.6 ± 7.4 % of Control
Remaining Activities (% of Control, n = 3) ([3]; test substance 1 μM): 104.9 ± 1.0 % of Control
Remaining Activities (% of Control, n = 3) ([3]; test substance 3 μM): 106.2 ± 3.7 % of Control
Remaining Activities (% of Control, n = 3) ([3]; test substance 10 μM): 101.6 ± 0.5 % of Control
Remaining Activities (% of Control, n = 3) ([3]; test substance 30 μM): 100.4 ± 1.4 % of Control
Remaining Activities (% of Control, n = 3) ([3]; test substance 100 μM): 102.6 ± 1.7 % of Control
Remaining Activities (% of Control, n = 3) ([3]; test substance 300 μM): 100.6 ± 1.3 % of Control
Remaining Activities (% of Control, n = 3) ([3]; test substance 1000 μM): 99.5 ± 4.8 % of Control
inhibitory effects on CYP1A2, CYP2A6, CYP2B6, CYP2C9, CYP2C19, CYP2D6, and CYP3A4 [4]: no inhibitory effects
cases of INR elevation when coumarin anticoagulants were combined with GCS ([5]; EFSA scientific opinion): 40 cases
INR on co-administration with warfarin ([5]; interaction case, co-administration of CS and GCS with warfarin): elevated INR
adverse effects in clinical trials [6]: do not exhibit significant adverse effects
